Assay results from US20090054235A1, “Benzoheterocyclylethylbenzamide derivatives” (priority 2005, published 2009).

System: Pyrenophora teres
Assay: In vivo test on Pyrenophora teres (preventive spray on barley plants)
Conditions: barley plants (Express variety), grading 12 days after contamination, in comparison with control plants
Protocol: The active ingredient tested is prepared by potter homogenisation in a concentrated suspension type formulation at 100 g/l. This suspension is then diluted with water to obtain the desired active material concentration.
Barley plants (Express variety) in starter cups, sown on a 50/50 peat soil-pozzolana substrate and grown at 12° C., are treated at the 1-leaf stage (10 cm tall) by spraying with the aqueous suspension described above. Plants, used as controls, are treated with an aqueous solution not containing the active material. After 24 hours, the plants are contaminated by spraying them with an aqueous suspension of Pyrenophora teres spores (12,000 spores per ml). The spores are collected from a 12-day-old culture. The contaminated barley plants are incubated for 24 hours at about 20° C. and at 100% relative humidity, and then for 12 days at 80% relative humidity.
Grading is carried out 12 days after the contamination, in comparison with the control plants.

## O=C(NCCc1c[nH]c2ccc(Br)cc12)c1ccccc1C(F)F [N.[2-(5-bromo-1H-indol-3-yl)ethyl]-2-(difluoromethyl)benzamide]
Dose of 500 ppm
  protection: no protection at all

## O=C(NCCc1c[nH]c2ccc(Br)cc12)c1ccccc1C(F)(F)F [N.[2-(5-bromo-1H-indol-3-yl)ethyl]-2-(trifluoromethyl)benzamide]
Dose of 330 ppm
  protection: no protection at all

## O=C(NCCc1c[nH]c2ccc(Br)cc12)c1ccccc1Cl [N.[2-(5-bromo-1H-indol-3-yl)ethyl]-2-chlorobenzamide]
Dose of 500 ppm
  protection: no protection at all

## O=C(NCCc1c[nH]c2ccc(Br)cc12)c1ccccc1I [N.[2-(5-bromo-1H-indol-3-yl)ethyl]-2-iodobenzamide]
Dose of 500 ppm
  protection: no protection at all
